Experimental data published in PubChem BioAssay AID1361 (SRMLSC, 2008).
Active and inactive are the calls of the source. How the calls were made is not given here.

Experiment: mitochondrial fusion inhibitors, confirmation, cell-based, chemical genetic, wild-type and mutant (AID 1361)
Settings: Cell-based mitochondrial fusion phenotype, imaging
[1] = mutant cells, measured here: mutant cell line IC50

| Structure (SMILES) | IC50 (WT cells) | IC50 [1] |
| --- | --- | --- |
| CS(=O)(=O)N(Cc1cc2ccccc2[nH]c1=O)C1CCCCC1 | > 25 µM (inactive) | > 25 µM |
| O=c1c2cn[nH]c2nc(SCc2ccccc2F)n1-c1ccc(Br)cc1 | 11.2 µM | 23.8 µM |
| CCOC(=O)c1sc2nc(CSc3ccccc3)nc(N3CCC(C(N)=O)CC3)c2c1C | > 25 µM (inactive) | > 25 µM |
| CC1(C)C=C2[C@H]3CC[C@@H]4[C@@]5(C)CCC(=O)C(C)(C)[C@@H]5CC[C@@]4(C)[C@]3(C)CC[C@@]2(C(=O)O)CC1 | 21.9 µM | > 25 µM |
| CCOc1ccc(-n2c(SCC(=O)Nc3cc(C)on3)nnc2-c2c[nH]c3ccccc23)cc1 | > 25 µM (inactive) | > 25 µM |
| COc1ccc(/C=N/N(Cc2ccccc2)c2ccccc2)cc1O | 11.6 µM | > 25 µM |
| C/C(N)=C(/C#N)C(=O)CSc1nnnn1-c1ccccc1 | > 25 µM (inactive) | > 25 µM |
| Cc1cc(=O)n2[nH]c(-c3ccc(F)cc3)cc2n1 | > 25 µM (inactive) | > 25 µM |
| CCC(C)c1ccccc1NC(=O)COC(=O)c1ccc2[nH]c3c(c2c1)CCCC3 (stereo unspecified) | 9.98 µM | > 25 µM |
| Cc1cc2ncn(/N=C/c3cccnc3)c2cc1C | > 25 µM (inactive) | > 25 µM |
| Cc1ccc(CC2SC(=Nc3ccccc3)N(c3ccccc3)C2=O)cc1 (stereo unspecified) | 18.7 µM | > 25 µM |
| CCc1ccc(C2=CC(c3cc(Br)ccc3F)n3ncnc3N2)cc1 (stereo unspecified) | 23.7 µM | > 25 µM |
| CC(C)N1C(=O)/C(=C\c2nc3ccccc3c(=O)n2-c2ccccc2)c2ccccc21 | 18.8 µM | > 25 µM |
| COc1cccc(-c2nc(OC(C)C)c3ccccc3n2)c1 | > 25 µM (inactive) | > 25 µM |
| Cc1cc(Cl)ccc1OC(C)C(=O)Nc1ccccc1N1CCOCC1 (stereo unspecified) | 21.1 µM | > 25 µM |
| NC(=S)N/N=C/c1ccccc1OCCSc1ccc(Cl)cc1 | 6.86 µM | 12 µM |
| CC1(C(=O)OCC(=O)c2c[nH]c3ccccc23)CC1(Cl)Cl (stereo unspecified) | 5.84 µM | 9.97 µM |
| O=C(N/N=C/c1c[nH]c2ccccc12)c1[nH]c2ccc(Br)cc2c1-c1ccccc1 | 3.58 µM | 14.9 µM |
| CC1CC2(CCCC2)N(C(=O)c2ccccc2)Cc2ccccc21 (stereo unspecified) | 24.9 µM (inactive) | > 25 µM |
| FC(F)(F)c1cnc(N2CCC(=NOCc3ccc(Cl)cc3)CC2)c(Cl)c1 | 13.7 µM | > 25 µM |
| Cc1cc(=O)[nH]c(SCC(N)=O)c1C#N | > 25 µM (inactive) | > 25 µM |

| Structure (SMILES) | IC50 (WT cells) | IC50 [1] |
| --- | --- | --- |
| CCOC(=O)C1=C(NC(=S)NC(=O)c2ccccc2)c2ccccc2CC1(C)CC (stereo unspecified) | 7.33 µM | > 25 µM |
| CCCC[n+]1c(-c2ccc(Cl)cc2Cl)csc1Nc1ccccc1 | 6.52 µM | > 25 µM |
| C/C=C(\C)CN1CCN(c2cc(C)ccc2C)CC1 | > 25 µM (inactive) | > 25 µM |
| COC(=O)C1=CN(CCOC23CC4CC(CC(C4)C2)C3)C=C(C(=O)OC)C1c1ccsc1 | 17 µM | > 25 µM |
| O=C(CN1C(=O)COc2ccccc21)N(Cc1cccnc1)Cc1cccc(F)c1 | > 25 µM (inactive) | > 25 µM |
| Cc1ccnc(NS(=O)(=O)c2ccc(N=CC3=C(O)CC(C)(C)CC3=O)cc2)n1 | > 25 µM (inactive) | > 25 µM |
| Cc1ccc2cc(CN(C(=O)c3ccco3)c3ccccc3C)c(=O)[nH]c2c1 | > 25 µM (inactive) | > 25 µM |
| Oc1ccccc1-c1nc(/C=C/c2ccccc2)nn1-c1ccccc1 | 11.2 µM | 15.4 µM |
| CCOC(=O)c1c(C)[nH]c(C)c1C(=O)COC(=O)/C=C/c1cccc(C(F)(F)F)c1 | 20.6 µM | > 25 µM |
| Cc1ccc(-n2cccc2/C=C2\C(=N)N3N=C(C(C)C)SC3=NC2=O)cc1 | 10.6 µM | > 25 µM |
| NNC(=O)c1cc2c(N3CCC(Cc4ccccc4)CC3)ncnc2s1 | 17.6 µM | > 25 µM |
| Cc1ccc(-c2cc(-c3ccccc3)c(C#N)c(N)n2)o1 | > 25 µM (inactive) | > 25 µM |
| Cc1nn(C(C)C(=O)NCC2CCCO2)c(=O)c2cc3occc3n12 (stereo unspecified) | > 25 µM (inactive) | > 25 µM |
| CCc1c(C)nc2[nH]nc(-c3ccccc3)n2c1=O | > 25 µM (inactive) | > 25 µM |
| CC(C)N(Cc1nc(-c2ccc(Cl)cc2)no1)C(=O)CCC1CCCC1 | 13.7 µM | > 25 µM |
| CCOC(=O)c1c(C)[nH]c(C(=O)OCC(=O)Nc2cc(Cl)ccc2OC)c1C | > 25 µM (inactive) | > 25 µM |
| O=C(CCc1nc(-c2ccccc2)no1)NCCc1ccccc1 | > 25 µM (inactive) | > 25 µM |
| COCCN(C(=S)Nc1cccc(C)c1)C(C)c1cccs1 (stereo unspecified) | 23.7 µM | > 25 µM |
| COCCCNC(=O)c1cccc(C(=O)NCCCOC)c1 | > 25 µM (inactive) | > 25 µM |
| COc1ccc(S(=O)(=O)N2CCCCCC2)cc1C(=O)OCc1c(C)noc1C | > 25 µM (inactive) | > 25 µM |
| CCC(C)(C)c1ccc(OCC(=O)N(C)C)c(C(C)(C)CC)c1 | 20.9 µM | > 25 µM |

| Structure (SMILES) | IC50 (WT cells) | IC50 [1] |
| --- | --- | --- |
| Cc1ccc(S(=O)(=O)NCc2ccco2)c(C)c1C | > 25 µM (inactive) | > 25 µM |
| CCCC1(CCC)NC(=O)N(CC(=O)Nc2cccc(OC)c2)C1=O | > 25 µM (inactive) | > 25 µM |
| O=C(Nc1cccc(Cl)c1N1CCCC1)c1ccc(Br)o1 | 18.1 µM | > 25 µM |
| CCCn1c2c(c(O)c(C(=O)Nc3nccs3)c1=O)CCCC2 | 12.7 µM | > 25 µM |
| O=C(Nc1cc(S(=O)(=O)N2CCCCC2)ccc1Cl)c1ccccc1NS(=O)(=O)c1ccc(F)cc1 | 23.4 µM | > 25 µM |
| COc1ccc(OC)c(NC(=O)COC(=O)Cc2ccc(Br)cc2)c1 | > 25 µM (inactive) | > 25 µM |
| CCCCOP(=O)(OCCCC)C(Nc1ccccc1)c1ccc2c(c1)OCO2 (stereo unspecified) | 20.3 µM | > 25 µM |
| O=S(=O)(NCC(Nc1ccc(Cl)cc1)c1ccccc1)c1ccccc1 (stereo unspecified) | 13.9 µM | > 25 µM |
| Cc1nc2cc(C(=O)OCC(=O)NC34CC5CC(CC(C5)C3)C4)ccc2n1-c1ccccc1 | 21.9 µM | > 25 µM |
| CC(C)c1ccc(OCc2nc(-c3ccccn3)no2)c(Br)c1 | 15.6 µM | 20.8 µM |
| Cn1c(Oc2ccc3c(c2)OCO3)nc2c1c(=O)n(Cc1ccccc1)c(=O)n2C | > 25 µM (inactive) | > 25 µM |
| CC1CCC(C(C)C)C(OC(=O)COC(=O)c2ccccc2N)C1 (stereo unspecified) | 17.9 µM | > 25 µM |
| Cc1cccc(-n2c(-c3csc4ccccc34)n[nH]c2=S)c1 | > 25 µM (inactive) | > 25 µM |
| CCCn1nnc(NC(=O)c2ccc(-c3cccc(Cl)c3)o2)n1 | > 25 µM (inactive) | > 25 µM |
| Cc1ccc(-c2cc(C(F)F)n3ncc(C(=O)Nc4c(C)nn(Cc5ccccc5Cl)c4C)c3n2)cc1 | 16.2 µM | > 25 µM |
| COc1cccc(N2C(=O)C(c3ccccc3)=C(c3nc4ccccc4s3)C2NC(C)=O)c1 (stereo unspecified) | > 25 µM (inactive) | > 25 µM |
| O=C(c1ccc2c(c1)OCO2)N(Cc1cccs1)C1(C(=O)NC2CCCCC2)CCCCC1 | > 25 µM (inactive) | > 25 µM |
| CCCCCOC(=O)c1ccc(NC(=O)c2ccco2)cc1 | 12.4 µM (inactive) | 10.5 µM |
| CCOC(=O)C1=NN(c2ccccc2)C2(S1)SC(C(C)=O)=C(C)N2c1ccccc1 (stereo unspecified) | 7.84 µM | > 25 µM |
| Cc1sc(NC(=O)c2ccco2)c(C(c2ccc(F)cc2)N2CCN(C)CC2)c1C (stereo unspecified) | 14.4 µM (inactive) | > 12.5 µM |
| Cc1ccc2c(c1)c1c(n2CC(O)Cn2nc(C)c(Br)c2C)CCCC1 (stereo unspecified) | 12.3 µM | 22.8 µM |

| Structure (SMILES) | IC50 (WT cells) | IC50 [1] |
| --- | --- | --- |
| COC(=O)CN1C(c2cccc(Cl)c2)=Nc2ccc(Cl)cc2C1c1ccccc1 (stereo unspecified) | 7.73 µM | 24 µM |
| Cc1ccc(C(=O)Nc2nc(-c3ccccc3)c(-c3ccccc3)o2)cc1 | 4.97 µM | 9.35 µM |
| CCCc1c(C)[nH]c2ccc(NC(C)=O)cc2c1=O | > 25 µM (inactive) | > 25 µM |
| COc1ccc(C2=Nc3cccc4cccc(c34)N2)cc1 | > 25 µM (inactive) | > 25 µM |
| CN1/C(=C\C(=O)Nc2cccc(Cl)c2)C(C)(C)c2ccccc21 | 9.74 µM | 24.7 µM |
| Cc1c(N2C(=O)c3cccc4cccc(c34)C2=O)c(=O)n(-c2ccccc2)n1C | > 25 µM (inactive) | > 25 µM |
| CCN(CC)C(=O)C1CC(=O)N(c2ccc(F)c(Cl)c2)C1 (stereo unspecified) | > 25 µM (inactive) | > 25 µM |
| C=CCNC1=C(Cl)C(=O)N(c2cccc(Cl)c2Cl)C1=O | > 25 µM (inactive) | > 25 µM |
| Cc1ccc2c(N)c(C#N)sc2n1 | > 25 µM (inactive) | > 25 µM |
| Clc1cccc(NCc2nnc(SCc3ccc(Cl)cc3Cl)o2)c1 | 10.6 µM | > 25 µM |
| CCOC(=O)c1ccc2c(c1)n(CC)c(/C=C/N(C)c1ccccc1)[n+]2CC | > 25 µM (inactive) | > 25 µM |
| COc1ccc(NC(=S)NNC(=O)COc2ccc(Cl)cc2Cl)cc1 | 19.5 µM | > 25 µM |
| Cc1cccc(-n2ncc3c(N4CC(C)CC(C)C4)ncnc32)c1 (stereo unspecified) | 14.6 µM | 20 µM |
| CCc1cc(-c2n[nH]c(=S)n2CC(C)C)cs1 | > 25 µM (inactive) | > 25 µM |
| Cc1nn(C(C)(C)C)c(OC(=O)c2cccs2)c1Sc1ccccc1 | 22.1 µM | > 25 µM |
| COc1ccc(-c2nc(-c3ccccc3)[nH]c(=O)c2C#N)cc1 | > 25 µM (inactive) | > 25 µM |
| C/C=C(/C(=C/C)c1ccc(O)cc1)c1ccc(O)cc1 | 21 µM | > 25 µM |
| CCOC(=O)N1CCN(S(=O)(=O)c2ccc(C)cc2)C1c1ccc(OC)cc1 (stereo unspecified) | > 25 µM (inactive) | > 25 µM |
| CCOc1ccccc1NC(=O)C(NCC1CCCCC1)c1ccccc1 (stereo unspecified) | 14.3 µM | > 25 µM |
| CN(C)S(=O)(=O)c1ccc(C(=O)Nc2nnc(-c3ccc4c(c3)CCCC4)o2)cc1 | 12.8 µM | 22 µM |
